Values joined by “and” are separate entries in the source; they are usually repeats but may differ in a detail not shown here. Equal entries are not always repeated.
Assays:
Format in all cases: in vitro ADME
[1] = 5-FU formation from FT enantiomers in human hepatic microsomes (kinetic analysis, formation rate); details: for Km1 / Vmax1 / CLint1: high-affinity component; for CLint1: Vmax/Km; for Km2 / Vmax2: low-affinity component; for Km / Vmax: monophasic kinetics
Procedure: (§1) (pooled preparations from 20 donors; Kansas City, KS). […] Insect microsomes expressing only NADPH-P450 oxidoreductase and cytochrome b5 were also used as control. These enzymes were stored at −80°C until use.
(§2) 5-FU formed from FT was subjected to extensive metabolism by dihydropyrimidine dehydrogenase (DPD) contaminating human hepatic preparations. Therefore, a potent DPD inhibitor, CDHP, was always added to avoid the unexpected loss of 5-FU (Ikeda et al. [2000]; Yamamiya et al. [2010]). Incubation mixture for hepatic microsomal metabolism contained FT, microsomes (1 mg protein/mL), 0.1 mmol/L CDHP, and an NADPH-generating system consisting of 1.3 mmol/L β-NADP^+, 3.3 mmol/L glucose-6-phosphate, 3.3 mmol/L magnesium chloride, and 0.4 units glucose-6-phosphate dehydrogenase in 100 mmol/L Tris (pH 7.4). Metabolic reaction by S9 and cytosol (each 2 mg protein/mL) was carried out in 100 mmol/L phosphate (pH 7.4) because TPase requires phosphate ions for catalyzing the reaction. In some cases, insect microsomes expressing recombinant CYP isoforms (20 pmol/mL) were added to the incubation mixtures in either 50, 100 mmol/L phosphate (pH 7.4) or 100 mmol/L Tris (pH 7.4), depending on supplier's recommendation. […] The reaction for the assay of FT metabolism was initiated by adding the substrate, following preincubation for 5 min at 37°C. […] The incubation times of microsomes, cytosol, and S9 were 15, 15, and 30 min, respectively. After centrifugation, the supernatant was collected and stored at −80°C until the determination of 5-FU. Because a small portion of FT is nonenzymatically converted to 5-FU, the content of 5-FU spontaneously formed was subtracted from total yield obtained after incubation to correct the activity. The spontaneous degradation of FT to 5-FU was evaluated using enzymes inactivated by heating them at 100°C for 5 min.
(§3) Concentration of 5-FU was determined using a LC/MS/MS system. […] The mobile phase consisted of 10 mmol/L ammonium acetate/acetonitrile 10:90 (v/v). The MS/MS analysis was performed in negative ionization mode under multiple reaction monitoring (MRM) mode, using mass transitions, m/z 128.6/41.8 for 5-FU and m/z 130.6/42.8 for ^15N2-5-FU, an internal standard (IS). […] For quantification of 5-FU, the calibration curves were linear over the range 2–1000 ng/mL.
(§4) In determining kinetic parameters, FT concentration ranged from 0.03 to 10 mmol/L. All reactions were performed in a linear range of 5-FU formation with respect to protein or CYP concentrations and incubation time. Eadie–Hofstee plot analysis was used to characterize enzyme kinetics in which kinetic parameters were estimated by fitting the data to the following equations (1) or (2): [drawing 1] (1) [drawing 2] (2) where V is 5-FU formation rate, S is FT concentration in the incubation mixture, Km1 and Km2 are affinity constants for high- and low-affinity components, respectively, and Vmax1 and Vmax2 are maximum velocities for high- and low-affinity components, respectively.

[2] = 5-FU formation from FT enantiomers in pooled human hepatic cytosol
Procedure: as §1
5-FU formed from FT was subjected to extensive metabolism by dihydropyrimidine dehydrogenase (DPD) contaminating human hepatic preparations. Therefore, a potent DPD inhibitor, CDHP, was always added to avoid the unexpected loss of 5-FU (Ikeda et al. [2000]; Yamamiya et al. [2010]). Incubation mixture for hepatic microsomal metabolism contained FT, microsomes (1 mg protein/mL), 0.1 mmol/L CDHP, and an NADPH-generating system consisting of 1.3 mmol/L β-NADP^+, 3.3 mmol/L glucose-6-phosphate, 3.3 mmol/L magnesium chloride, and 0.4 units glucose-6-phosphate dehydrogenase in 100 mmol/L Tris (pH 7.4). Metabolic reaction by S9 and cytosol (each 2 mg protein/mL) was carried out in 100 mmol/L phosphate (pH 7.4) because TPase requires phosphate ions for catalyzing the reaction. […] The spontaneous degradation of FT to 5-FU was evaluated using enzymes inactivated by heating them at 100°C for 5 min.
Concentration of 5-FU was determined using a LC/MS/MS system. […] For quantification of 5-FU, the calibration curves were linear over the range 2–1000 ng/mL. […]

CYP1A2 = target: T1, CYP1A2 (Homo sapiens, UniProt P05177); test: 5-FU formation from FT enantiomers by cDNA-expressed CYP1A2 (kinetics, velocity, RAF contribution); details: for CYP contribution: CYP1A2, RAF method, 30 μmol/L
T1 construct: purchased BD Gentest; host or cells: insect cells (baculovirus)
T1 sequence (P05177 2-516 limits assumed): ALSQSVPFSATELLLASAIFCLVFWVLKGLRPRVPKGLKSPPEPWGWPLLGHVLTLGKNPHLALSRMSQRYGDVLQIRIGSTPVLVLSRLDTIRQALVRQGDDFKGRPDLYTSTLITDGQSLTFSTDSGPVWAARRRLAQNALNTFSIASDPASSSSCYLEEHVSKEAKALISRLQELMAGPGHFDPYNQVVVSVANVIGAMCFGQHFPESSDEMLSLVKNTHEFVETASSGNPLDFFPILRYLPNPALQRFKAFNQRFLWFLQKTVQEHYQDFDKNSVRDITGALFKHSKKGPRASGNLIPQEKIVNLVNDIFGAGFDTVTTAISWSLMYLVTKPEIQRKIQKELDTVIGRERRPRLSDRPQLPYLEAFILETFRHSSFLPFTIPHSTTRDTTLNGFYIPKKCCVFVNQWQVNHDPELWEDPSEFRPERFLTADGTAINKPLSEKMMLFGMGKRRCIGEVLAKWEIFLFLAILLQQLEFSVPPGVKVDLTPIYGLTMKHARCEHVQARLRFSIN
Procedure: as §1, §2, §3, §4
(§5) The contribution of CYPn to the metabolism of R- and S-FT at their concentration of 30 μmol/L was subsequently calculated using equation (4). [drawing 4] (4) VCYPn = 5-FU formation rate in cDNA-expressed CYPn.

CYP2E1 = target: T2, CYP2E1 (Homo sapiens, UniProt P05181); test: 5-FU formation from FT enantiomers by cDNA-expressed CYP2E1 (kinetics, velocity, RAF contribution); details: for CYP contribution: CYP2E1, RAF method, 30 μmol/L; for CLint / Km / Vmax: cDNA-expressed CYP2E1
T2 construct: purchased BD Gentest; host or cells: insect cells (baculovirus)
Procedure: as §1, §2, §3, §4, §5

[3] = Mean ± SD of five human livers, total (for R-FT sum of high- and low-affinity components)
[4] = human hepatic microsomes, higher
[5] = microsomes HG32, total (for R-FT sum of high- and low-affinity components)
[6] = microsomes HH31, total (for R-FT sum of high- and low-affinity components)
[7] = microsomes HH74, total (for R-FT sum of high- and low-affinity components)
[8] = microsomes HH94, total (for R-FT sum of high- and low-affinity components)

T2 sequence (P05181 whole entry): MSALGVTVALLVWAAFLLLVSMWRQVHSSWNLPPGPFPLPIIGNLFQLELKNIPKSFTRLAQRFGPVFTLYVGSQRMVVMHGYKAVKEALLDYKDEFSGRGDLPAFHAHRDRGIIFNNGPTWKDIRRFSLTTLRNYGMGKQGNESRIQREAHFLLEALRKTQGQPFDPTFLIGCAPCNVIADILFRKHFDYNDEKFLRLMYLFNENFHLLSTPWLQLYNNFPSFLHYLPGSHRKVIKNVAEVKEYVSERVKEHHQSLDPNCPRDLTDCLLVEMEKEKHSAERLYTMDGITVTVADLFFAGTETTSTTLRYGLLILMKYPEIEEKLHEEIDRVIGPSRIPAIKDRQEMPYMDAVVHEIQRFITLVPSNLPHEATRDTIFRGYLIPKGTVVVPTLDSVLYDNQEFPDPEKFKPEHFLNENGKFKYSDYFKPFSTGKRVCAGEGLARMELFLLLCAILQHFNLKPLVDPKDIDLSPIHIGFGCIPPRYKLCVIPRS

## O=c1[nH]c(=O)n([C@H]2CCCO2)cc1F [R-FT]
[1]; Mean ± SD of five human livers
  Km1: 0.12 mmol/L and 0.12 ± 0.03 mmol/L
  Vmax1: 838 ± 669 pmol/min/mg
  CLint1: 6.2 ± 4.4 µL/min/mg
[1]; [3]
  CLint: 6.4 ± 4.4 µL/min/mg
[1]; Mean ± SD of human livers
  Km2: 2.7 mmol/L and 2.7 ± 0.3 mmol/L
  Vmax2: 613 ± 236 pmol/min/mg
[1]; [4]
  CLint (Vmax/Km) of high-affinity component compared with the low-affinity one: approximately 27 fold
  CLint value of R-FT relative to that of S-FT: 8.8 fold
[1]; microsomes HG32
  Km1: 0.11 mmol/L
  Vmax1: 355 pmol/min/mg
  CLint1: 3.2 µL/min/mg
  Km2: 3.0 mmol/L
  Vmax2: 302 pmol/min/mg
[1]; [5]
  CLint: 3.3 µL/min/mg
[1]; microsomes HH31
  Km1: 0.14 mmol/L
  Vmax1: 1816 pmol/min/mg
  CLint1: 13 µL/min/mg
  Km2: 2.9 mmol/L
  Vmax2: 859 pmol/min/mg
[1]; [6]
  CLint: 13 µL/min/mg
[1]; microsomes HH74
  Km1: 0.093 mmol/L
  Vmax1: 146 pmol/min/mg
  CLint1: 1.6 µL/min/mg
  Km2: 2.7 mmol/L
  Vmax2: 709 pmol/min/mg
[1]; [7]
  CLint: 1.8 µL/min/mg
[1]; microsomes HH81
  Km1: 0.16 mmol/L
  Vmax1: 1162 pmol/min/mg
  CLint1: 7.1 µL/min/mg
[1]; microsomes HH81, total
  CLint: 7.1 µL/min/mg
[1]; microsomes HH94
  Km1: 0.12 mmol/L
  Vmax1: 712 pmol/min/mg
  CLint1: 6.1 µL/min/mg
  Km2: 2.3 mmol/L
  Vmax2: 583 pmol/min/mg
[1]; [8]
  CLint: 6.4 µL/min/mg
[1]; substrate concentration well below the Km value
  contribution of the high-affinity component to the conversion to 5-FU: over 90%
[2]
  Vmax: 761 pmol/min/mg
[2]; read-out: apparent Km
  Km: 26000 µM
CYP1A2
  CYP contribution: 7.5%
CYP1A2; cDNA-expressed CYP1A2
  CLint: 4.9 nL min^−1 pmol^−1 CYP
  Km: 1100 ± 100 µM
  Vmax: 5.6 ± 0.3 pmol min^−1 pmol^−1 CYP
CYP2E1
  CYP contribution: 4.3%
  CLint: 2.3 nL min^−1 pmol^−1 CYP
  Km: 3600 ± 300 µM
  Vmax: 8.4 ± 0.6 pmol min^−1 pmol^−1 CYP

## O=c1[nH]c(=O)n([C@@H]2CCCO2)cc1F [S-FT]
[1]; Mean ± SD of five human livers
  Km: 1600 ± 600 µM
  Vmax: 1021 ± 692 pmol/min/mg
[1]; [3]
  CLint: 0.73 ± 0.53 µL/min/mg
[1]; microsomes HG32
  Km: 1400 µM
  Vmax: 468 pmol/min/mg
[1]; [5]
  CLint: 0.34 µL/min/mg
[1]; microsomes HH31
  Km: 1400 µM
  Vmax: 2205 pmol/min/mg
[1]; [6]
  CLint: 1.6 µL/min/mg
[1]; microsomes HH74
  Km: 2600 µM
  Vmax: 583 pmol/min/mg
[1]; [7]
  CLint: 0.23 µL/min/mg
[1]; microsomes HH81
  Km: 1100 µM
  Vmax: 915 pmol/min/mg
[1]; microsomes HH81, total
  CLint: 0.81 µL/min/mg
[1]; microsomes HH94
  Km: 1300 µM
  Vmax: 936 pmol/min/mg
[1]; [8]
  CLint: 0.71 µL/min/mg
CYP1A2
  CYP contribution: 4.4%
CYP1A2; cDNA-expressed CYP1A2
  Km: > 10000 µM
CYP2E1
  CYP contribution: 7.0%
  CLint: 1.3 nL min^−1 pmol^−1 CYP
  Km: 3700 ± 200 µM
  Vmax: 4.7 ± 0.2 pmol min^−1 pmol^−1 CYP

Reference: article PMC4184574, “Enantioselectivity in the cytochrome P450-dependent conversion of tegafur to 5-fluorouracil in human liver microsomes” (Pharmacology Research & Perspectives, 2013)
